In US10479780B2, “Aminopyrazole derivatives” (Chugai Seiyaku Kabushiki Kaisha, priority 2015, dated 2019):

Experiments:
Assay type in all cases: biochemical
[1] = target: T1, human Src enzyme (Homo sapiens, UniProt P12931); test: Src enzyme inhibitory activity (time-resolved fluorometry, biotinylated peptide phosphorylation); details: read-out: SRC_IC50
T1 construct: purchased Carna Biosciences, Inc. 08-173
Outline: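 Compounds were tested for blocking tyrosine phosphorylation of a biotinylated peptide substrate by recombinant human Src. Phosphorylated product was quantified by time-resolved fluorometry using europium cryptate and XL665 conjugates, and IC50 was calculated against the compound-free control.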

[2] = target: T2, human Lck enzyme (Homo sapiens, UniProt P06239); test: Lck enzyme inhibitory activity (time-resolved fluorometry, biotinylated peptide phosphorylation); details: read-out: LCK_IC50
T2 construct: purchased Carna Biosciences, Inc. 08-170
T2 sequence (P06239 whole entry): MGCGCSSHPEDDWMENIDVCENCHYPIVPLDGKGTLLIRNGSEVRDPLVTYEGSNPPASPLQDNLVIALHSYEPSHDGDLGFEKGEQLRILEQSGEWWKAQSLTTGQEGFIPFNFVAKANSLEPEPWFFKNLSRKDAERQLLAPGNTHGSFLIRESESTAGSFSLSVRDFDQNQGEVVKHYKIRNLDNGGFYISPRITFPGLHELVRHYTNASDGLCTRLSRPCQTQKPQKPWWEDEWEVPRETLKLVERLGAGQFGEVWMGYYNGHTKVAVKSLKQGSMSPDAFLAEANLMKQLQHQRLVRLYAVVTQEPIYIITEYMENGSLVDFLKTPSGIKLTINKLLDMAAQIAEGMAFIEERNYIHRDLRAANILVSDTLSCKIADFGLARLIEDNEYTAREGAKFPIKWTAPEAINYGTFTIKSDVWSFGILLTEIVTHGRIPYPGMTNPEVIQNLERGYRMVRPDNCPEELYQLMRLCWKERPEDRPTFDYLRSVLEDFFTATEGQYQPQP
Outline: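 Readout pairs a europium cryptate-labelled anti-phosphotyrosine antibody with XL665-streptavidin, measured by time-resolved fluorescence. IC50 derived from percent inhibition against untreated controls.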

[3] = target: T3, human Yes1 enzyme (Homo sapiens, UniProt P07947); test: Yes1 enzyme inhibitory activity (time-resolved fluorometry, biotinylated peptide phosphorylation); details: read-out: YES_IC50
T3 construct: made in house
T3 sequence (P07947 whole entry): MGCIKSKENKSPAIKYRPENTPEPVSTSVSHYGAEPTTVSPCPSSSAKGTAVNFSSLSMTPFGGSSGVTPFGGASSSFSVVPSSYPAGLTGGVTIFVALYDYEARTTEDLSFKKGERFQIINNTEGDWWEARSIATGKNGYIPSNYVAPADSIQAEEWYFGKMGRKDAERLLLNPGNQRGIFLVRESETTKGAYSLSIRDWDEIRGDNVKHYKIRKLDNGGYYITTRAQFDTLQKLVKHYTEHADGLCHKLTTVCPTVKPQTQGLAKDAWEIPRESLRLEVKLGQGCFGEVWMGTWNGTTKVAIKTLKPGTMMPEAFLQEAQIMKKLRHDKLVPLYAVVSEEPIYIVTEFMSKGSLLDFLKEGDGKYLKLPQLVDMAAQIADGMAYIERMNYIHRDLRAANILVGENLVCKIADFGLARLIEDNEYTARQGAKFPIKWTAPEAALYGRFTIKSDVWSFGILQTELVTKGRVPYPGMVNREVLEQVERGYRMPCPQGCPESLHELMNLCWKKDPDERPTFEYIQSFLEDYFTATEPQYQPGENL
Outline: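 Inhibition was expressed against a compound-free control to give IC50, using TR-FRET read-out (Eu-cryptate anti-pTyr antibody, streptavidin-XL665).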

T1 sequence (P12931 whole entry): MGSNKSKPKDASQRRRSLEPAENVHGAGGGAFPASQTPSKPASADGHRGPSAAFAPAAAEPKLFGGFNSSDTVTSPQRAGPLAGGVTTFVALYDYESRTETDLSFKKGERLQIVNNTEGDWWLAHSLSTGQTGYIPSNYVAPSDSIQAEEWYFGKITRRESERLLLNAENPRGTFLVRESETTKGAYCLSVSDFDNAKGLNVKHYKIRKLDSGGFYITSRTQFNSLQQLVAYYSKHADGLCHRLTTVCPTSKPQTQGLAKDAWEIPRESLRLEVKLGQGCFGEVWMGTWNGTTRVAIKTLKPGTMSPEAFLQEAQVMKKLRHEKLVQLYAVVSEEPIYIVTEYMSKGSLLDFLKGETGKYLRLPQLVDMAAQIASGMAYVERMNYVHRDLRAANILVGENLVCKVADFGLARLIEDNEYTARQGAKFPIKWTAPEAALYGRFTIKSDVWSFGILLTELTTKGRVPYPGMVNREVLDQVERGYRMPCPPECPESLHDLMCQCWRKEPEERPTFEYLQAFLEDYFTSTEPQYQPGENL

Row | SMILES | IC50 [1] | IC50 [2] | IC50 [3]
1 | Cc1cc(-n2ncc(C(=O)c3cc4cc(OC5CCN(C6CS(=O)(=O)C6)CC5)c(-c5cncnc5)cc4[nH]3)c2N)ccc1Oc1ccccc1F [Example 5-1-283, [5-amino-1-[4-(2-fluorophenoxy)-3-methylphenyl]pyrazol-4-yl]-[5-[1-(1,1-dioxothietan-3-yl)piperidin-4-yl]oxy-6-pyrimidin-5-yl-1H-indol-2-yl]methanone] | 270 nM | 32 nM | 2 nM
2 | Cc1cc(Oc2c(F)cccc2F)ncc1-n1ncc(C(=O)c2cc3cc(OC4CCN(C5CS(=O)(=O)C5)CC4)c(-c4cncnc4)cc3[nH]2)c1N [Example 5-1-284, [5-amino-1-[6-(2,6-difluorophenoxy)-4-methylpyridin-3-yl]pyrazol-4-yl]-[5-[1-(1,1-dioxothietan-3-yl)piperidin-4-yl]oxy-5-pyrimidin-5-yl-1H-indol-2-yl]methanone] | 11 nM | 6.9 nM | 1.1 nM
3 | Cc1cc(-n2ncc(C(=O)c3cc4cc(OC5CCN(C6CCCC6)CC5)c(-c5ccccc5Cl)cc4[nH]3)c2N)ccc1Oc1ccccc1F [Example 5-1-285, [5-amino-1-[4-(2-fluorophenoxy)-3-methylphenyl]pyrazol-4-yl]-[6-(2-chlorophenyl)-5-(1-cyclopentylpiperidin-4-yl)oxy-1H-indol-2-yl]methanone] | 2300 nM | 500 nM | 5.2 nM
4 | Cc1cc2cc(C(=O)c3cnn(-c4cnc(Oc5c(F)cccc5F)cc4C)c3N)[nH]c2cc1N1C(=O)NC(C)(C)C1=O [Example 5-1-286, 3-[2-[5-amino-1-[6-(2,6-difluorophenoxy)-4-methylpyridin-3-yl]pyrazole-4-carbonyl]-5-methyl-1H-indol-6-yl]-5,5-dimethylimidazolidine-2,4-dione] | 30 nM | 5.3 nM | 2.3 nM
5 | Cc1cc(-n2ncc(C(=O)c3cc4cc(OC5CCN(C(C)C)CC5)c(N5C(=O)N[C@@H](C)C5=O)cc4[nH]3)c2N)ccc1Oc1ccccc1F [Example 5-1-287, (5S)-3-[2-[5-amino-1-[4-(2-fluorophenoxy)-3-methylphenyl]pyrazole-4-carbonyl]-5-(1-propan-2-ylpiperidin-4-yl)oxy-1H-indol-6-yl]-5-methylimidazolidine-2.4-dione] | 350 nM | 17 nM | 1 nM
6 | Cc1cc2cc(C(=O)c3cnn(-c4cnc(Oc5c(F)cccc5F)cc4C)c3N)[nH]c2cc1NS(=O)(=O)N1C2CCC1COC2 [Example 5-1-291, N-[2-[5-amino-1-[6-(2,6-difluorophenoxy)-4-methylpyridin-3-yl]pyrazole-4-carbonyl]-5-methyl-1H-indol-6-yl]-3-oxa-8-azabicyclo[3.2.1] octane-8-sulfonamide] | 420 nM | 130 nM | 10 nM

Next, values leading:

Row | IC50 [1] | IC50 [2] | IC50 [3] | SMILES
7 | 52 nM | 17 nM | 1.9 nM | Cc1cc(Oc2c(F)cccc2F)ncc1-n1ncc(C(=O)c2cc3cc(OC4CCN(C5CCCC5)CC4)c(-c4ccccc4Cl)cc3[nH]2)c1N [Example 5-1-288, [5-amino-1-[6-(2,6-difluorophenoxy)-4-methylpyridin-3-yl]pyrazol-4-yl]-[6-(2-chlorophenyl)-5-(1-cyclopentylpiperidin-4-yl)oxy-1H-indol-2-yl]methanone]
8 | 46 nM | 30 nM | 2.1 nM | Cc1cc(Oc2c(F)cccc2F)ncc1-n1ncc(C(=O)c2cc3cc(OC4CCN(C5CS(=O)(=O)C5)CC4)c(-c4ccccc4Cl)cc3[nH]2)c1N [Example 5-1-290, [5-amino-1-[6-(2,6-difluorophenoxy)-4-methylpyridin-3-yl]pyrazol-4-yl]-[6-(2-chlorophenyl)-5-[1-(1,1-dioxothietan-3-yl)piperidin-4-yl]oxy-1H-indol-2-yl]methanone]
